# Reference: US20160101072A1, “Therapeutic uses of enzyme inhibitors” (Proximagen Limited, priority 2013, published 2016)
# Marks after values point to notes of the source that are not given here.
# Tests used:
# CD11b+ myeloid cells = assay: Cell sorting: recruitment of CD11b+ myeloid cells into muscles of mdx mice; format: in vivo, mouse; settings: mdx mice muscle; for % change compared to vehicle (CD11b+ myeloid cells) / % of viable cells (CD11b+ myeloid cells): 4 weeks
# Text: (§1) In this example, labelled antibodies were used to assess infiltration of inflammatory myeloid and lymphoid cells into muscles of mdx mice following treatment of the mice with different doses of the glucocorticoid prednisolone, and the VAP-1 inhibitors carbidopa and benserazide. CD11b is a transmembrane glycoprotein which is expressed on the surface of granulocytes (including neutrophils and eosinophils), monocytes, NK cells, dendritic cells, tissue macrophages and subsets of T and B cells. Labelled antibody to CD11b was used to assess infiltration of inflammatory myeloid cells into muscles of mdx mice. Labelled antibody to Ly6C was used to assess infiltration of pro- and anti-inflammatory monocytes into muscles of mdx mice. Labelled antibody to CD4 and CD8a antigen was used to assess infiltration of Th cells (CD4^+CD8^-) and double negative (CD4^-CD8^-) T cells into muscles of mdx mice. A total of a ninety C57BU10ScSn-Dmdmdx/J male mice, 3 weeks of age (+/-3days), were transferred to the in vivo research laboratory in Bar Harbor, Me. Additional ten […] male mice 3 weeks of age (+/-3 days) were also transferred and served as a wild-type control group. The mice were ear notched for identification and housed in ventilated polysulfone cages with HEPA filtered air at a density of 3-4 mice per cage. The animal room was lit entirely with artificial fluorescent lighting on controlled 12 hour light/dark cycle (6 a.m. to 6 p.m. light). […] The animal room was set for 15 air exchanges per hour. Filtered tap water acidified to a pH of 2.8 to 3.2 was provided ad libitum. […] Prior to study initiation, mice were acclimated for 3 days. Mice were tested for grip strength and in the open field at ages 25 and 26 days, and drug regimen was initiated at age 27 days. Mice were monitored twice weekly for clinical observations and body weights. […] 24 hours after the second open field tests, blood was collected by retro-orbital bleeding, and mice were humanely euthanized by CO2 asphyxiation. One triceps surae was collected fresh and processed for immune cell sorting, one tibialis anterior was preserved in RNALater for RNA extraction, one whole hind limb and the diaphragm were fixed in 2% paraformaldehyde overnight at 4° C. for paraffin embedding and histology stains. For immune cell sorting, muscle samples were enzymatically and mechanically dissociated following manufacturer instructions (Skeletal Muscle Dissociation KitCatalog no. 130-098-305, Miltenyi Biotec). Cells were stained with the following antibodies: [table] Stained cells were analyzed on a BD LSR II cytometer and counts of different populations were expressed in percentage of the number of live cells counted.
# [1] = system: CD11b+Ly6Chigh profibrotic myeloid cells (Ly6C+ monocytes); assay: Cell sorting: recruitment of CD11b+Ly6Chigh profibrotic myeloid cells into muscles of mdx mice; format: in vivo, mouse; settings: mdx mice muscle; for % change compared to vehicle (CD11b+Ly6Chigh profibrotic myeloid cells) / % of viable cells (CD11b+Ly6Chigh profibrotic myeloid cells): 4 weeks
# Text: as §1
# [2] = system: CD11b+Ly6Clow anti-fibrotic myeloid cells (Ly6C- monocytes); assay: Cell sorting: recruitment of CD11b+Ly6Clow anti-fibrotic myeloid cells into muscles of mdx mice; format: in vivo, mouse; settings: mdx mice muscle; for % change compared to vehicle (CD11b+Ly6Clow anti-fibrotic myeloid cells) / % of viable cells (CD11b+Ly6Clow anti-fibrotic myeloid cells): 4 weeks
# Text: as §1
# [3] = system: CD11b+Ly6Chigh profibrotic : CD11b+Ly6Clow anti-fibrotic myeloid cells; assay: Ratio of profibrotic to anti-fibrotic myeloid cells in mdx mouse muscle; format: in vivo; settings: both doses
# Text: In this example, labelled antibodies were used to assess infiltration of inflammatory myeloid and lymphoid cells into muscles of mdx mice following treatment of the mice with different doses of the glucocorticoid prednisolone, and the VAP-1 inhibitors carbidopa and benserazide. […] Labelled antibody to CD11b was used to assess infiltration of inflammatory myeloid cells into muscles of mdx mice. Labelled antibody to Ly6C was used to assess infiltration of pro- and anti-inflammatory monocytes into muscles of mdx mice. Labelled antibody to CD4 and CD8a antigen was used to assess infiltration of Th cells (CD4^+CD8^−) and double negative (CD4^−CD8^−) T cells into muscles of mdx mice.
# A total of a ninety C57BU10ScSn-Dmdmdx/J male mice, 3 weeks of age (+/−3days), were transferred to the in vivo research laboratory in Bar Harbor, Me. Additional ten C57BU10ScSnJ male mice 3 weeks of age (+/−3 days) were also transferred and served as a wild-type control group. The mice were ear notched for identification and housed in ventilated polysulfone cages with HEPA filtered air at a density of 3-4 mice per cage. […]
# [4] = system: lymphoid CD4+CD8- T cells; assay: Cell sorting: recruitment of lymphoid CD4+CD8- T cells into muscles of mdx mice; format: in vivo, mouse; settings: mdx mice muscle
# Text: as §1
# [5] = system: lymphoid CD4-CD8- (double negative, DN) T cells; assay: Cell sorting: recruitment of lymphoid CD4-CD8- (double negative, DN) T cells into muscles of mdx mice; format: in vivo, mouse; settings: mdx mice muscle
# Text: as §1
# TNF mRNA = assay: mRNA quantification (RT PCR) of TNF in muscles of mdx mice; format: in vivo, mouse; settings: for TNF mRNA level: mdx mice muscle, GAPDH as normalizer; for effect on the level of TNF mRNA: treatment alone, mdx mouse muscle
# Text: (§2) A total of a ninety C57BU10ScSn-Dmdmdx/J male mice, 3 weeks of age (+/-3days), were transferred to the in vivo research laboratory in Bar Harbor, Me. Additional ten […] male mice 3 weeks of age (+/-3 days) were also transferred and served as a wild-type control group. The mice were ear notched for identification and housed in ventilated polysulfone cages with HEPA filtered air at a density of 3-4 mice per cage. The animal room was lit entirely with artificial fluorescent lighting on controlled 12 hour light/dark cycle (6 a.m. to 6 p.m. light). […] The animal room was set for 15 air exchanges per hour. Filtered tap water acidified to a pH of 2.8 to 3.2 was provided ad libitum. […] Prior to study initiation, mice were acclimated for 3 days. Mice were tested for grip strength and in the open field at ages 25 and 26 days, and drug regimen was initiated at age 27 days. Mice were monitored twice weekly for clinical observations and body weights. […] 24 hours after the second open field tests, blood was collected by retro-orbital bleeding, and mice were humanely euthanized by CO2 asphyxiation. One triceps surae was collected fresh and processed for immune cell sorting, one tibialis anterior was preserved in RNALater for RNA extraction, one whole hind limb and the diaphragm were fixed in 2% paraformaldehyde overnight at 4° C. for paraffin embedding and histology stains. Total RNAs were extracted with a modification of the Trizol method, reverse transcribed, and mRNAs of TGFβ, and the following inflammation markers were quantified by the SYBR green method with GAPDH as a normalizer: […]
# Lgals3 mRNA = assay: mRNA quantification (RT PCR) of Lgals3 in muscles of mdx mice; format: in vivo, mouse; settings: for Lgals3 mRNA level: mdx mice muscle, GAPDH as normalizer; for effect on the level of Lgals3 mRNA: treatment alone, mdx mouse muscle
# Text: as §2
# CD53 mRNA = assay: mRNA quantification (RT PCR) of CD53 in muscles of mdx mice; format: in vivo, mouse; settings: for CD53 mRNA level: mdx mice muscle, GAPDH as normalizer
# Text: as §2
# CD48 mRNA = assay: mRNA quantification (RT PCR) of CD48 in muscles of mdx mice; format: in vivo, mouse; settings: for CD48 mRNA level: mdx mice muscle, GAPDH as normalizer; for effect on the level of CD48 mRNA: treatment alone, mdx mouse muscle
# Text: as §2
# CD11b mRNA = assay: mRNA quantification (RT PCR) of CD11b in muscles of mdx mice; format: in vivo, mouse; settings: for CD11b mRNA level: mdx mice muscle, GAPDH as normalizer
# Text: as §2
# TGFβ mRNA = assay: mRNA quantification (RT PCR) of pro-fibrotic growth factor TGFβ in muscles of mdx mice; format: in vivo, mouse; settings: for % change compared to vehicle (TGFβ mRNA) / TGFβ mRNA: mdx mice muscle; for TGFβ mRNA: GAPDH as normalizer
# Text: as §2
# IL-6 mRNA = assay: mRNA quantification (RT PCR) of IL-6 in muscles of mdx mice; format: in vivo, mouse; settings: mdx mice muscle
# Text: as §2
# Mpeg1 mRNA = assay: mRNA quantification (RT PCR) of Mpeg1 in muscles of mdx mice; format: in vivo, mouse; settings: mdx mice muscle
# Text: as §2
# Ly6C1 mRNA = assay: mRNA quantification (RT PCR) of Ly6C1 in muscles of mdx mice; format: in vivo, mouse; settings: mdx mice muscle
# Text: as §2
# [6] = 100 mg/kg po twice/day, 4 weeks
# [7] = doses as in the table (carbidopa 100, benserazide 20 mg/kg po twice/day; prednisolone 1 mg/kg ip once/day)
# [8] = mdx mouse muscle, compared to vehicle
# [9] = treatment alone, mdx mouse muscle
smiles,measurement,setting,value
C[C@@](Cc1ccc(O)c(O)c1)(NN)C(=O)O [Carbidopa],% change compared to vehicle (CD11b+ myeloid cells),CD11b+ myeloid cells; 50 mg/kg po twice/day,−55.2%
same,% of viable cells (CD11b+ myeloid cells),CD11b+ myeloid cells; 50 mg/kg po twice/day,16.3** %
same,% change compared to vehicle (CD11b+ myeloid cells),CD11b+ myeloid cells; 100 mg/kg po twice/day,−49.2%
same,% of viable cells (CD11b+ myeloid cells),CD11b+ myeloid cells; 100 mg/kg po twice/day,18.5** %
same,reduction of myeloid cell recruitment compared with vehicle,CD11b+ myeloid cells; both carbidopa doses (columns 5 and 6 of FIG. 4),approximately 50%
same,% change compared to vehicle (CD11b+Ly6Chigh profibrotic myeloid cells),[1]; 50 mg/kg po twice/day,−86.4%
same,% of viable cells (CD11b+Ly6Chigh profibrotic myeloid cells),[1]; 50 mg/kg po twice/day,1.75** %
same,% change compared to vehicle (CD11b+Ly6Chigh profibrotic myeloid cells),[1]; 100 mg/kg po twice/day,−82.1%
same,% of viable cells (CD11b+Ly6Chigh profibrotic myeloid cells),[1]; 100 mg/kg po twice/day,1.31** %
same,reduction of profibrotic myeloid cell recruitment compared with vehicle,[1]; at both doses tested,over 80%
same,% change compared to vehicle (CD11b+Ly6Clow anti-fibrotic myeloid cells),[2]; 50 mg/kg po twice/day,−49.3%
same,% of viable cells (CD11b+Ly6Clow anti-fibrotic myeloid cells),[2]; 50 mg/kg po twice/day,13.8** %
same,% change compared to vehicle (CD11b+Ly6Clow anti-fibrotic myeloid cells),[2]; 100 mg/kg po twice/day,−41.2%
same,% of viable cells (CD11b+Ly6Clow anti-fibrotic myeloid cells),[2]; 100 mg/kg po twice/day,16** %
same,inhibition of recruitment of anti-fibrotic myeloid cells compared with vehicle,"[2]; both carbidopa doses (columns 5, 6 of FIG. 5B)",less than 50%
same,relative levels of pro- and anti-fibrotic myeloid cells,[3],in favour of anti-fibrotic myeloid cells
same,% change compared to vehicle (lymphoid CD4+CD8- T cells),[4]; [6],−51.4%
same,% of viable cells (lymphoid CD4+CD8- T cells),[4]; [6],7.1** %
same,reduction of recruitment of lymphoid CD4+CD8- T cells compared with vehicle,[4]; [7],over 33.3%
same,% change compared to vehicle (lymphoid CD4-CD8- DN T cells),[5]; [6],−56.4%
same,% of viable cells (lymphoid CD4-CD8- DN T cells),[5]; [6],14.2** %
same,reduction of recruitment of lymphoid DN T cells compared with vehicle,[5]; [7],~50%
same,TNF mRNA level,TNF mRNA; 50 mg/kg po twice/day,0.74
same,effect on the level of TNF mRNA,TNF mRNA,No significant effect
same,Lgals3 mRNA level,Lgals3 mRNA; 50 mg/kg po twice/day,0.66
same,effect on the level of Lgals3 mRNA,Lgals3 mRNA,no significant effect
same,CD53 mRNA level,CD53 mRNA; 50 mg/kg po twice/day,0.46**
same,reduction of the level of CD53 mRNA,CD53 mRNA; [8],52.6%
same,CD48 mRNA level,CD48 mRNA; 50 mg/kg po twice/day,0.86
same,effect on the level of CD48 mRNA,CD48 mRNA,no significant effect
same,CD11b mRNA level,CD11b mRNA; 50 mg/kg po twice/day,0.58*
same,reduction of the level of CD11b mRNA,CD11b mRNA; [8],42%
same,% change compared to vehicle (TGFβ mRNA),TGFβ mRNA; 50 mg/kg po twice/day,−34.7%
same,TGFβ mRNA,TGFβ mRNA; 50 mg/kg po twice/day,0.79
same,reduction of the TGFβ mRNA level (fraction in words),"TGFβ mRNA; treatment alone, muscle of mdx mice",over a third
same,effect on IL-6 mRNA level,IL-6 mRNA,No effects
same,effect on Mpeg1 mRNA level,Mpeg1 mRNA,No effects
same,effect on Ly6C1 mRNA level,Ly6C1 mRNA,No effects
"C[C@]12C=CC(=O)C=C1CC[C@@H]1[C@@H]2[C@@H](O)C[C@@]2(C)[C@H]1CC[C@]2(O)C(=O)CO [Prednisolone, prednisolone]",% change compared to vehicle (CD11b+ myeloid cells),CD11b+ myeloid cells; 0.2 mg/kg ip once/day,+14.8%
same,% of viable cells (CD11b+ myeloid cells),CD11b+ myeloid cells; 0.2 mg/kg ip once/day,41.8%
same,% change compared to vehicle (CD11b+ myeloid cells),CD11b+ myeloid cells; 1 mg/kg ip once/day,+20.9%
same,% of viable cells (CD11b+ myeloid cells),CD11b+ myeloid cells; 1 mg/kg ip once/day,44%
same,% change compared to vehicle (CD11b+Ly6Chigh profibrotic myeloid cells),[1]; 0.2 mg/kg ip once/day,+0.6%
same,% of viable cells (CD11b+Ly6Chigh profibrotic myeloid cells),[1]; 0.2 mg/kg ip once/day,7.37%
same,% change compared to vehicle (CD11b+Ly6Chigh profibrotic myeloid cells),[1]; 1 mg/kg ip once/day,−38.3%
same,% of viable cells (CD11b+Ly6Chigh profibrotic myeloid cells),[1]; 1 mg/kg ip once/day,4.52%
same,effect on recruitment of profibrotic myeloid cells compared with vehicle,[1]; both doses,no statistically significant effect
same,% change compared to vehicle (CD11b+Ly6Clow anti-fibrotic myeloid cells),[2]; 0.2 mg/kg ip once/day,+0.4%
same,% of viable cells (CD11b+Ly6Clow anti-fibrotic myeloid cells),[2]; 0.2 mg/kg ip once/day,27.3%
same,% change compared to vehicle (CD11b+Ly6Clow anti-fibrotic myeloid cells),[2]; 1 mg/kg ip once/day,+0.7%
same,% of viable cells (CD11b+Ly6Clow anti-fibrotic myeloid cells),[2]; 1 mg/kg ip once/day,27.4%
same,effect on recruitment of anti-fibrotic myeloid cells compared with vehicle,[2]; both doses,no statistically significant effect
same,TNF mRNA level,TNF mRNA; 0.2 mg/kg ip once/day,0.92
same,effect on the level of TNF mRNA,TNF mRNA,No significant effect
same,Lgals3 mRNA level,Lgals3 mRNA; 0.2 mg/kg ip once/day,1.2
same,effect on the level of Lgals3 mRNA,Lgals3 mRNA,no significant effect
same,CD53 mRNA level,CD53 mRNA; 0.2 mg/kg ip once/day,1.33
same,effect on the level of CD53 mRNA,CD53 mRNA; [9],not significantly affected
same,CD48 mRNA level,CD48 mRNA; 0.2 mg/kg ip once/day,1
same,effect on the level of CD48 mRNA,CD48 mRNA,no significant effect
same,CD11b mRNA level,CD11b mRNA; 0.2 mg/kg ip once/day,1.42
same,effect on the level of CD11b mRNA,CD11b mRNA; [9],not significantly affected
same,% change compared to vehicle (TGFβ mRNA),TGFβ mRNA; 0.2 mg/kg ip once/day,48.8%
same,TGFβ mRNA,TGFβ mRNA; 0.2 mg/kg ip once/day,1.80
same,effect on the level of TGFβ mRNA,"TGFβ mRNA; prednisolone alone, muscle of mdx mice",increased
same,effect on IL-6 mRNA level,IL-6 mRNA,No effects
same,effect on Mpeg1 mRNA level,Mpeg1 mRNA,No effects
same,effect on Ly6C1 mRNA level,Ly6C1 mRNA,No effects
